We go through four compounds from patent US10144742B2 (Millennium Pharmaceuticals, Inc., priority 2014, dated 2018).

In test [1] the target is hNAMPT protein (Homo sapiens (Human), UniProt P43490). The test can be described thus: NAMPT enzyme assay (TR-FRET/HTRF, BodiPY ligand, anti 6His-Tb). The class given is binding. To be noted: for inhibition at 1 µM: NAMPT inhibition at compound concentration 1 μM, read-out: Percent Inhibition; for IC50: NAMPT inhibition, IC50 range class, read-out: IC50. The method in brief:
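Compound or DMSO was incubated for 1 h at room temperature, protected from light, with BodiPY ligand and hNAMPT labelled by terbium anti-6His antibody. The 520 nm to 486 nm emission ratio after 320 nm excitation gave inhibition versus vehicle, from which concentration-response curves yielded IC50.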

The test system of test [2] is PC3 cells. Put plainly: PC3 growth inhibition (Cell-titer glo, 72 hours). To be noted: Homo sapiens, PC-3; compound concentration 1.667 μM; PC3 cells, 72 hours, Cell-titer glo; read-out: Percent Inhibition (PC3 growth inhibition). The class given is cell-based. The method in brief: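 Compounds in AIM serum-free medium were applied for 72 h at 37 °C, 5% CO2 to PC3 cells plated overnight from RPMI1640 culture. Luminescence after 10 min CellTiter-Glo, normalised to DMSO, gave % viability at 1 μM or 1.667 μM, or GI50/LD50.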

Test [3] concerns activated T cells. To be noted: cited from earlier work.
Test [4] concerns collagen-induced arthritis. The settings on record: cited from earlier work.
For test [5], the system named is experimental autoimmune encephalomyelitis (EAE). To be noted: model of T-cell mediated autoimmune disorders; cited from earlier work.

Where only a bound is given, the exact number is not on record here.

Chain of hNAMPT protein (P43490 whole entry): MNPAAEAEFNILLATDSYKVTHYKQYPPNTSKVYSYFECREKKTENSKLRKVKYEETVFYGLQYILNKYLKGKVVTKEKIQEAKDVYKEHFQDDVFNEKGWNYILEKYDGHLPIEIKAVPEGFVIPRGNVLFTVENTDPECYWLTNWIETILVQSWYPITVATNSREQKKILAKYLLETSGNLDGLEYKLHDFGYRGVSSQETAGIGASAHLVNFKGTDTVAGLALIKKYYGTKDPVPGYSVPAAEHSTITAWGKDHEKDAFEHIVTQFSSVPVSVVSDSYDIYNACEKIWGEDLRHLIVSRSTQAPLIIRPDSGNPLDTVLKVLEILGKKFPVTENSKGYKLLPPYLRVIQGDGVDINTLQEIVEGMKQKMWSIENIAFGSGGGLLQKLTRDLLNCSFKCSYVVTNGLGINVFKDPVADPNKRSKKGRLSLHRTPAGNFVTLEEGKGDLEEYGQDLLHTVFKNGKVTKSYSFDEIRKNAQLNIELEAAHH

The inhibition is the relative decrease from the control value, in per cent. A word on the IC50: it is the concentration that gives 50% inhibition. Turning to `CC(C)Oc1cc(-c2nc3cc(C(=O)NCCCc4ncc[nH]4)ccc3nc2-c2ccc(F)cc2)c(F)cn1` [Compound I-518, 3-(5-fluoro-2-isopropoxypyridin-4-yl)-2-(4-fluorophenyl)-N-[3-(1H-imidazol-2-yl)propyl]quinoxaline-6-carboxamide], in test [1], the inhibition at 1 µM is 86% and the IC50 lay in the range of 100 to 500 nM. Moreover, the inhibition at 1.667 µM in test [2] amounted to 1%.

With `COc1cc(-c2nc3cc(C(=O)NCCCc4nccn4C)ccc3nc2-c2ccc(F)cc2)c(F)cn1` [Compound I-519, 3-(5-fluoro-2-methoxypyridin-4-yl)-2-(4-fluorophenyl)-N-[3-(1-methyl-1H-imidazol-2-yl)propyl]quinoxaline-6-carboxamide], in test [1], the inhibition at 1 µM is 97% and the IC50 is under 100 nM. Moreover, in test [2], the inhibition at 1.667 µM worked out at 99%.

Take `O=C(NCCCc1nnc[nH]1)c1ccc2nc(-c3ccc(F)cc3)c(-c3cc(Cl)ccc3F)nc2c1` [Compound I-520, 3-(5-chloro-2-fluorophenyl)-2-(4-fluorophenyl)-N-[3-(4H-1,2,4-triazol-3-yl)propyl]quinoxaline-6-carboxamide]: in test [1], the inhibition at 1 µM is 89% and the IC50 is under 100 nM. Moreover, the inhibition at 1.667 µM in test [2] amounted to 1%.

Consider `O=C(/C=C/c1cccnc1)NCCCCC1CCN(C(=O)c2ccccc2)CC1` [FK866], for which the “effect on activated T cells” value in test [3] was “selectively block proliferation and induce apoptosis of activated T cells”. In test [4], the “efficacy in animal models of arthritis” value is listed as “efficacious”. In test [5], the “effect on manifestations of EAE” value was “ameliorated the manifestations of experimental autoimmune encephalomyelitis”.
